Tests used:
Human heart chymase = molecular target: T1, Human heart chymase (Homo sapiens, UniProt P23946); experiment: Measurement of chymase inhibitory activity; assay type: biochemical; settings: substrate Suc-Ala-Ala-Pro-Phe-MCA, 30° C., pH 7.5
T1 construct: Human heart chymase was purified according to the method of Urata et al; from tissue; host or cells: human heart
T1 sequence (P23946 22-247): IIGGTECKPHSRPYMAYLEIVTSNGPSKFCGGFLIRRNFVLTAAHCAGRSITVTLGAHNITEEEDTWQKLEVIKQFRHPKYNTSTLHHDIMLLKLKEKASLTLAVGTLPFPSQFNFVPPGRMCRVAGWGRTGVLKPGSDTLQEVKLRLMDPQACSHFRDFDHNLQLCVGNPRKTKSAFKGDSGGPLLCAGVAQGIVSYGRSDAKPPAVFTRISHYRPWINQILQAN
Procedure: Human heart chymase was purified according to the method of Urata et al. (J. Biol. Chem., 1990, 265, 22348). The inhibitory activity of the compound of the present invention was determined as follows. Purified enzyme was diluted with 0.1M tris-HCl buffer (pH=7.5), 1M sodium chloride, and 0.01% TritonX-100 to obtain an enzyme solution having appropriate concentrations. Suc-Ala-Ala-Pro-Phe-MCA (Peptide Institute Inc.) was dissolved in 10 mM dimethyl sulfoxide (hereinafter referred to as DMSO) and diluted 20-fold with 0.1M Tris-HCl buffer (pH 7.5) containing 1M sodium chloride and 0.01% TritonX-100 to an appropriate concentration to prepare substrate solution.
5 μl of the test sample in DMSO was added to 75 μl of the enzyme solution and preincubated at 30° C. for 10 minutes. Then, 20 μl of the substrate solution was added to the test sample-enzyme mixture, and incubated at 30° C. Ten minutes later, 50 μl of 30% acetic acid was added to stop the enzymatic reaction, and the amount of AMC formed was determined using a fluorophotometer. At the same time, 5 μl of DMSO in stead of the test sample was added and reacted simultaneously as a control. The inhibitory activity to human chymase was calculated based on the value of the control, and then the inhibition percentage and the 50% inhibition concentration (IC50) were determined.

[1] = system: Nippostrongylus brasiliensis (Nb); experiment: Number of eggs in feces in Nb infected mice; assay type: in vivo
Procedure: (§1) Male BALB/c mice (7-weeks old) were transcutaneously inflected with 750 parasitic worms of Nippostrongylus brasiliensis (Nb) (third stage larvae) in accordance with an already reported method (Int. Arch. Allergy Immunol. 117, Suppl. 1, 2, 1998). After two weeks, the number of eosinophils in the peripheral blood and the total number of leukocytes in the peripheral blood were measured. Further, at day 7 and day 10, the number of eggs in the feces was measured. The chymase inhibitor (Compound 18) was dissolved in saline and injected intraperitoneally in 0.2 ml amounts once a day continuously from the day before infection until the end of the test. Note that the control group was administered only saline. The number of cells in the peripheral blood was measured by sampling peripheral blood from the eye cavity. The eosinophils were stained with a Hinkelman's solution, then counted under a microscope. Further, the total number of leukocytes was measured under a microscope after staining with by a Turk's solution. The number of eggs in the feces was determined by obtaining individual feces of the mice, measuring their weight, then dissolving them in 1 ml of 10% formalin, counting the number of eggs in the feces solution under a microscope, then expressing the result as the number of eggs per gram of feces.

[2] = system: eosinophils in the peripheral blood of Nb infected mice; experiment: Increase in eosinophils of mice infected with Nippostrongylus brasiliensis (Nb); assay type: in vivo
Procedure: as §1

[3] = 50 mg/kg, intraperitoneal once a day, BALB/c mice, 2 weeks after Nb infection

## CC(C(=O)O)C(=O)Nc1cccc(S(=O)(=O)n2c(=O)[nH]c3cc(Cl)ccc3c2=O)c1 (stereo not shown) [Compound 13, 2-{3-[(7-chloro-2,4(1H,3H)-quinazolinedion-3-yl)sulfonyl]phenylaminocarbonyl}propionic acid]
Human heart chymase
  IC50: 300 nM

## Nc1cc(S(=O)(=O)n2c(=O)[nH]c3cc(Cl)ccc3c2=O)ccc1C(=O)[O-].[Na+] [Compound 18, 4-[(7-chloro-2,4(1H,3H)-quinazolinedion-3-yl)sulfonyl]anthranilic acid monosodium salt]
[1]; 50 mg/kg, intraperitoneal once a day, day 7 after Nb infection
  No. of Nb eggs in gram of feces, Day 7: 30541 ± 12501 eggs per gram of feces
[1]; 50 mg/kg, intraperitoneal once a day, day 10 after Nb infection
  No. of Nb eggs in gram of feces, Day 10: 558 ± 1248 eggs per gram of feces
[1]; day 7 or day 10 after Nb infection
  Difference in number of eggs of Nb versus group not administered: almost no difference
[2]; 2 mg/kg, intraperitoneal once a day, BALB/c mice, 2 weeks after Nb infection
  Number of eosinophils in peripheral blood, 2 weeks after infection: 1036 ± 240 no./mm^3
[2]; 2 mg/kg, intraperitoneal once a day, BALB/c mice
  Number of eosinophils in peripheral blood, before infection: 30 ± 12 no./mm^3
[2]; 10 mg/kg, intraperitoneal once a day, BALB/c mice, 2 weeks after Nb infection
  Number of eosinophils in peripheral blood, 2 weeks after infection: 818 ± 155 no./mm^3
[2]; 10 mg/kg, intraperitoneal once a day, BALB/c mice
  Number of eosinophils in peripheral blood, before infection: 36 ± 11 no./mm^3
[2]; [3]
  Number of eosinophils in peripheral blood, 2 weeks after infection: 360 ± 66 no./mm^3
  Total no. of leukocytes in peripheral blood 2 weeks after infection: 5820 ± 460 no./mm^3
[2]; 50 mg/kg, intraperitoneal once a day, BALB/c mice
  Number of eosinophils in peripheral blood, before infection: 32 ± 16 no./mm^3
[2]; 50 mg/kg/day, Dunnett's test, 2 weeks after infection
  Effect on Nb-induced increase in the number of eosinophils: significantly suppressed
[2]; Nb infected mice, 2 weeks after infection
  Effect on the total number of leukocytes in the peripheral blood: little effect

Reference: patent US6677344B2, “Chymase inhibitor for the treatment of eosinophilia” (Daiichi Suntory Pharma Co., Ltd., priority 2000, dated 2004)
